Assay results from patent EP0062407A1, “Therapeutic compounds containing beta-lactams” (BEECHAM GROUP PLC, priority 1981, dated 1982).
≈ marks a conversion by molar mass, not a printed value.

Experiments:
Staph. aureus Russell = assay: Synergistic activity in vitro with amoxycillin; assay type: cell-based, Staphylococcus aureus; design: Synergistic activity in vitro: unit not given beside the values; settings: for Synergistic activity in vitro: Staph. aureus Russell
Klebsiella aerogenes E70 = assay: Synergistic activity in vitro with amoxycillin; assay type: cell-based; design: Synergistic activity in vitro: unit not given beside the values; settings: for Synergistic activity in vitro: Klebsiella aerogenes E70
E. coli JT 39 = assay: Synergistic activity in vitro with amoxycillin; assay type: cell-based, Escherichia coli; settings: for Synergistic activity in vitro: E. coli JT 39
S. aureus Russell = assay: Antibacterial activity of quaternary amine derivatives alone; assay type: cell-based; settings: Staphylococcus aureus, compound alone
K. aerogenes E70 = assay: as above; assay type: cell-based; settings: Klebsiella aerogenes, compound alone
E. coli JT39 = assay: as above; assay type: cell-based; settings: Escherichia coli, compound alone
[1] = amoxycillin with inhibitor, Inhibitor Conc 1
[2] = amoxycillin with inhibitor, Inhibitor Conc 5
[3] = amoxycillin alone, no inhibitor

Row | SMILES | Synergistic activity in vitro (Staph. aureus Russell; [1]) | Synergistic activity in vitro (Klebsiella aerogenes E70; [1]) | Synergistic activity in vitro (Klebsiella aerogenes E70; [2]) | Synergistic activity in vitro (E. coli JT 39; [1]) | Synergistic activity in vitro (E. coli JT 39; [2]) | MIC (S. aureus Russell) | MIC (K. aerogenes E70) | MIC (E. coli JT39) | further results
1 | C[N+](C)(C/C=C1\O[C@@H]2CC(=O)N2[C@H]1C(=O)[O-])Cc1ccccc1 [Example No 1, 9-(N-Benzyl-N,N-dimethyl)ammonio-9-deoxyclavulanate] | 0.62 | 6.2 | 3.1 | 8 | 2 | – | – | – | Synergistic activity in vitro (Staph. aureus Russell; [2]): 0.08
2 | C[N+](C)(C)C/C=C1\O[C@@H]2CC(=O)N2[C@H]1C(=O)[O-] [Example No. 7, 9-N,N,N,-trimethylammonio-9-deoxyclavulanate] | – | – | – | – | – | 4 µg/mL (≈ 16.6 µM) | 62.5 µg/mL (≈ 260 µM) | 16 µg/mL (≈ 66.6 µM) | –
3 | CC1(C)S[C@@H]2[C@H](NC(=O)[C@H](N)c3ccc(O)cc3)C(=O)N2[C@H]1C(=O)O [Amoxycillin, reference compound] | – | – | – | – | – | – | – | – | MIC µg/ml amoxycillin (Staph. aureus Russell; S. aureus Russell, amoxycillin alone): 500 µg/mL; Synergistic activity in vitro (Staph. aureus Russell; [3]): 1000; MIC µg/ml amoxycillin (Klebsiella aerogenes E70; K. aerogenes E70, amoxycillin alone): 1000 µg/mL; Synergistic activity in vitro (Klebsiella aerogenes E70; [3]): 500; MIC µg/ml amoxycillin (E. coli JT 39; E. coli JT39, amoxycillin alone): 2000 µg/mL; Synergistic activity in vitro (E. coli JT 39; [3]): ≥2000
4 | CC[N+](C)(C/C=C1\O[C@@H]2CC(=O)N2[C@H]1C(=O)[O-])Cc1ccccc1 (some centres unmarked) [Example No 2, 9-(N-Benzyl-N-ethvl-N-methyl)ammonio-9-deoxyclavulanate] | 0.16 | 12.5 | 3.1 | 16 | 4 | – | – | – | –
5 | CC[N+](C)(C)C/C=C1\O[C@@H]2CC(=O)N2[C@H]1C(=O)[O-] [Example No. 5, 9-(N,N-dimethyl-N-ethyl)ammonio-9-deoxyclavulanate] | – | – | – | – | – | 31 µg/mL (≈ 122 µM) | 250 µg/mL (≈ 983 µM) | 62 µg/mL (≈ 244 µM) | –
6 | CC[N+](CC)(CC)C/C=C1\O[C@@H]2CC(=O)N2[C@H]1C(=O)[O-] [Example No. 6, 9-N,N,N-triethylammonio-9-deoxyclavulanate] | – | – | – | – | – | 31 µg/mL (≈ 110 µM) | 500 µg/mL (≈ 1770 µM) | 125 µg/mL (≈ 443 µM) | –
